Experimental data reported in patent publication US8492429B2, “Combination of IAP inhibitors and FLT3 inhibitors” (Novartis AG, priority 2006, dated 2013).

System: Ba/F3-FLT3-ITD cells
Test: Proliferation of cells cultured in the presence and absence of WEHI (IL-3)
Type: cell-based, murine
Details: WEHI as source of IL-3

SMILES: CNC(C)C(=O)NC(C(=O)N1CCC2CCN(CCc3ccccc3)CC21)C1CCCCC1 (stereo not shown) [LBW242]
- Inhibition of cellular proliferation in the presence and absence of IL-3: inhibits proliferation of Ba/F3-FLT3-ITD cells in both the absence, as well as the presence of IL-3
